Consider 30 compounds from patent publication US9801961B2, “2-phenylimidazo[1,2-a]pyrimidines as imaging agents” (Hoffmann-La Roche Inc., priority 2013, dated 2017).

The first assay relates to native tau aggregates. Description: TAU radioligand in vitro displacement assay ([3H]T808 autoradiography on human AD brain sections). In kind it is binding. The settings on record: compound 10 nM, radioligand [3H]T808 10 nM, 50 mM Tris pH 7.4, room temperature, 30 min. The essentials:
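Human AD brain cryosections (10 μm) co-incubated with [3H]T808 (10 nM) and test compound at various concentrations in 50 mM Tris pH 7.4, 30 min at room temperature, then washed at 4° C. Autoradiography after 5-day plate exposure. % displacement from ROI specific binding, white-matter signal subtracted as non-specific; cold T808 internal control.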
Turning to `COc1cccc(-c2cn3ccc(N4CCOCC4)nc3n2)c1` [Example 41, 4-[2-(3-Methoxyphenyl)imidazo[1,2-a]pyrimidin-7-yl]morpholine], the “% displacement of [3H]T808 (10 nM) at 10 nM” value (“% displacement … at 10 nM” for short) is 16%.
On the same count and under the same terms, then `Oc1ccc(-c2cn3ccc(N4CCC4)nc3n2)cc1` [Example 80, 4-[7-(Azetidin-1-yl)imidazo[1,2-a]pyrimidin-2-yl]phenol], with 25%; and `CN(C)c1ccn2cc(-c3ccccc3)nc2n1` [Example 18, N,N-Dimethyl-2-phenylimidazo[1,2-a]pyrimidin-7-amine], with 35%; and `CNc1ccn2cc(-c3ccc4c(c3)CC(=O)N4)nc2n1` [Example 110, 5-(7-(Methylamino)imidazo[1,2-a]pyrimidin-2-yl)indolin-2-one], with 18%.
Still for that read-out and setting: as for `Cc1cccc(-c2cn3ccc(N4CCOCC4)nc3n2)c1` [Example 26, 4-[2-(3-Methylphenyl)imidazo[1,2-a]pyrimidin-7-yl]morpholine], the figure is 13%; as for `COc1ccc(-c2cn3ccc(N4CC[C@H](F)C4)nc3n2)cc1` [Example 34, 7-[(3 S)-3-Fluoropyrrolidin-1-yl]-2-(4-methoxyphenyl)imidazo[1,2-a]pyrimidine], 15%.
For `Cc1ccc(-c2cn3ccc(N4CCCC4)nc3n2)cc1` [Example 44, 2-(4-Methylphenyl)-7-pyrrolidin-1-ylimidazo[1,2-a]pyrimidine], the “% displacement … at 10 nM” value was found to be 28%.
In the case of `COc1ccc(-c2cn3ccc(N4CC(F)C4)nc3n2)cc1` [Example 70, 7-(3-Fluoroazetidin-1-yl)-2-(4-methoxyphenyl)imidazo[1,2-a]pyrimidine], the “% displacement … at 10 nM” value is given as 25%.
Turning to `CNc1ccn2cc(-c3cccc(CO)c3)nc2n1` [Example 114, [3-[7-(Methylamino)imidazo[1,2-a]pyrimidin-2-yl]phenyl]methanol acetic acid adduct], the “% displacement … at 10 nM” value came to 11%.
The same measure, in the same setting: as for `CNc1ccn2cc(-c3cccc(OCCF)c3)nc2n1` [Example 129, 2-(3-(2-Fluoroethoxy)phenyl)-N-methylimidazo[1,2-a]pyrimidin-7-amine], the figure is 16%.
With `FCCCOc1ccc(-c2cn3ccc(NC4CC4)nc3n2)cc1` [Example 139, N-Cyclopropyl-2-(4-(3-fluoropropoxy)phenyl)imidazo[1,2-a]pyrimidin-7-amine], the “% displacement … at 10 nM” value is 22%.
Same read-out and setting: then `CN(C)c1ccc(-c2cn3ccc(N4CCC(F)CC4)nc3n2)cc1` [Example 91, 4-[7-(4-Fluoropiperidin-1-yl)imidazo[1,2-a]pyrimidin-2-yl]-N,N-dimethylaniline], with 15%.
On the same count and under the same terms, then `Cc1cccc(-c2cn3ccc(N4CCCC4)nc3n2)c1` [Example 48, 2-(3-Methylphenyl)-7-pyrrolidin-1-ylimidazo[1,2-a]pyrimidine], with 23%; and `CN(C)c1ccc(-c2cn3ccc(N(C)C)nc3n2)cc1` [Example 46, 2-[4-(Dimethylamino)phenyl]-N,N-dimethylimidazo[1,2-a]pyrimidin-7-amine], with 43%.
The same measure, in the same setting: then `FC1CCN(c2ccn3cc(-c4cnccn4)nc3n2)CC1` [Example 106, 7-(4-Fluoropiperidin-1-yl)-2-(pyrazin-2-yl)imidazo[1,2-a]pyrimidine], with 20%; and `Cc1cccc(-c2cn3ccc(N(C)CCF)nc3n2)c1` [Example 88, N-(2-Fluoroethyl)-N-methyl-2-(3-methylphenyl)imidazo[1,2-a]pyrimidin-7-amine], with 22%.
On to `Cc1cccc(-c2cn3ccc(N4CC(F)C4)nc3n2)c1` [Example 72, 7-(3-Fluoroazetidin-1-yl)-2-(3-methylphenyl)imidazo[1,2-a]pyrimidine], for which the “% displacement … at 10 nM” value was 18%.
On the same count and under the same terms, as for `CO[C@H]1CCN(c2ccn3cc(-c4ccccc4)nc3n2)C1` [Example 32, 7-[(3S)-3-Methoxypyrrolidin-1-yl]-2-phenylimidazo[1,2-a]pyrimidine], the figure is 13%.
On the same count and under the same terms, then `FCCOc1cccc(-c2cn3ccc(N4CCC4)nc3n2)c1` [Example 115, 7-(Azetidin-1-yl)-2-(3-(2-fluoroethoxy)phenyl)imidazo[1,2-a]pyrimidine], with 5%.
For the compound `CO[C@@H]1CCN(c2ccn3cc(-c4ccccc4)nc3n2)C1` [Example 31, 7-[(3R)-3-Methoxypyrrolidin-1-yl]-2-phenylimidazo[1,2-a]pyrimidine], the “% displacement … at 10 nM” value came to 7%.
Still for that read-out and setting: as for `Cc1cccc(-c2cn3ccc(N4CCC(CCF)CC4)nc3n2)c1` [Example 59, 7-[4-(2-Fluoroethyl)piperidin-1-yl]-2-(3-methylphenyl)imidazo[1,2-a]pyrimidine], the figure is 10%.
Consider `CNc1ccn2cc(-c3ccc(SC)cc3)nc2n1` [Example 141, N-Methyl-2-(4-(methylthio)phenyl)imidazo[1,2-a]pyrimidin-7-amine], for which the “% displacement … at 10 nM” value is given as 34%.
Turning to `COc1ccc(-c2cn3ccc(N4CC(OC)C4)nc3n2)cc1` [Example 81, 7-(3-Methoxyazetidin-1-yl)-2-(4-methoxyphenyl)imidazo[1,2-a]pyrimidine], the “% displacement … at 10 nM” value worked out at 16%.

Still in this assay, the particulars now being: compound 1 uM, radioligand [3H]T808 10 nM, 50 mM Tris pH 7.4, room temperature, 30 min.
For the compound `COc1ccc(-c2cn3ccc(N4CCN(CCF)CC4)nc3n2)cc1.Cl` [Example 19, 7-[4-(2-Fluoroethyl)piperazin-1-yl]-2-(4-methoxyphenyl)imidazo[1,2-a]pyrimidine hydrochloride], the “% displacement of [3H]T808 (10 nM) at 1 uM” value (“% displacement … at 1 uM” below) is 74%.
As to `Fc1ccccc1-c1cn2ccc(N3CCC(F)CC3)nc2n1` [Example 12, 2-(2-Fluorophenyl)-7-(4-fluoropiperidin-1-yl)imidazo[1,2-a]pyrimidine], the “% displacement … at 1 uM” value is reported as 50%.
Consider `CN(C)c1ccn2cc(-c3ccccc3)nc2n1` [Example 18, N,N-Dimethyl-2-phenylimidazo[1,2-a]pyrimidin-7-amine], for which the “% displacement … at 1 uM” value is on record as 92%.
The same measure, in the same setting: then `Cc1cccc(-c2cn3ccc(N4CCC(F)CC4)nc3n2)c1` [Example 10, 7-(4-Fluoropiperidin-1-yl)-2-(3-methylphenyl)imidazo[1,2-a]pyrimidine], with 79%; and `COc1cccc(-c2cn3ccc(N4CCN(CCF)CC4)nc3n2)c1.Cl` [Example 20, 7-[4-(2-Fluoroethyl)piperazin-1-yl]-2-(3-methoxyphenyl)imidazo[1,2-a]pyrimidine hydrochloride], with 51%.
Same read-out and setting: then `COc1cccc(-c2cn3ccc(N(C)CCF)nc3n2)c1` [Example 22, N-(2-Fluoroethyl)-2-(3-methoxyphenyl)-N-methylimidazo[1,2-a]pyrimidin-7-amine], with 82%.
Consider `FC1CCN(c2ccn3cc(-c4ccc(Cl)cc4)nc3n2)CC1` [Example 4, 2-(4-Chlorophenyl)-7-(4-fluoropiperidin-1-yl)imidazo[1,2-a]pyrimidine], for which the “% displacement … at 1 uM” value stood at 58%.
Still for that read-out and setting: as for `Cl.FCCN1CCN(c2ccn3cc(-c4ccccc4)nc3n2)CC1` [Example 24, 7-[4-(2-Fluoroethyl)piperazin-1-yl]-2-phenylimidazo[1,2-a]pyrimidine hydrochloride], the figure is 64%.
